Experimental data published in patent EP4786487A1, “PEPTIDE” (Peptidream Inc, priority 2023, dated 2025).
Where two headings read alike, the source gives them in different places. Positions of bridges follow the written chain, without caps; N, C: chain ends. Non-standard residues stand in square brackets, D forms with d. Residues, ends and D or L forms follow the SMILES beside them. *: point of attachment. Phe(3-OCH2COOH) = N[C@@H](Cc1cccc(OCC(=O)O)c1)C(=O)O; Piperidine(4-CH2CH2CONH2) = NC(=O)CCC1CCN(*)CC1; Phe(4-CONH2) = NC(=O)c1ccc(C[C@H](N)C(=O)O)cc1; Phe(4-COOH) = N[C@@H](Cc1ccc(C(=O)O)cc1)C(=O)O; Trp(7-aza) = N[C@@H](Cc1c[nH]c2ncccc12)C(=O)O; Piperazinyl(4-CH2COOH) = O=C(O)CN1CCN(*)CC1; Bip = N[C@@H](Cc1ccc(-c2ccccc2)cc1)C(=O)O; Gly(decyl) = CCCCCCCCCC[C@H](N)C(=O)O; Gly(N(CH2)3COOH) = O=C(O)CCCNCC(=O)O; NMeY = CN[C@@H](Cc1ccc(O)cc1)C(=O)O; NMeF = CN[C@@H](Cc1ccccc1)C(=O)O; NMeE = CN[C@@H](CCC(=O)O)C(=O)O; Aoc(2) = CCCCCC[C@H](N)C(=O)O; Ahp(2) = CCCCC[C@H](N)C(=O)O; NMeA = CN[C@@H](C)C(=O)O; Sar = CNCC(=O)O

Key:
Assay type in all cases: cell-based
[1] = target: T1, GDF-11 (Homo sapiens, UniProt O95390); test: Reporter gene assay for myostatin signaling in HepG2 cell line, Evaluation Procedure (1), GDF-11 inhibition; conditions: read-out: IC50 (Luciferase) GDF-11 HepG2
T1 construct: purchased R&D systems 1958-GD-G8/CF
T1 sequence (O95390 299-407): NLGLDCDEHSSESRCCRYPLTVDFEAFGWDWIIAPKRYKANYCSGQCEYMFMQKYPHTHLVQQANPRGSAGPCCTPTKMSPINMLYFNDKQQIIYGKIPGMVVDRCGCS
Protocol: (§1) In this Example, the in vitro myostatin inhibitory effects of the peptides synthesized in Examples 1 and 2 were evaluated using a reporter gene assay for myostatin signaling in HepG2 cell line.
(§2) HepG2 cell line (HB-8065, ATCC) cultured in EMEM (055-08975, WAKO Industries) containing 10% FBS (10270106, Gibco) and 50 µg/mL gentamicin (11980-14, Nacalai Tesque) was seeded in 96-well plates (167008, Thermo) at 2.0 × 10^4 cells/well and incubated in a CO2 incubator (37°C, 5% CO2) for 24 hours. The pGL3(CAGA)12-luc plasmid, namely a pGL3 vector (E1751, Promega) having a luciferase gene inserted downstream of a promoter sequence with 12 CAGA repeats attached, was added to the wells along with a transfection reagent (X-treamGENE9 DNA Transfection Reagent, 6365809001, Roche) at a concentration of 0.04 µg/well. The cell line was cultured in a CO2 incubator (37°C, 5% CO2) for 24 hours for transfection. The medium was discarded and replaced with EMEM containing 50 µL/well of 0.1% bovine serum albumin (A7030, Sigma) and 50 µg/mL gentamicin, and incubated in a CO2 incubator (37°C, 5% CO2) for 2 hours.
(§3) Myostatin (788-G8/C, R&D systems) or GDF-11 (1958-GD-G8/CF, R&D systems) was added so that the final concentrations were those listed in Table 5.
(§4) A 4-fold dilution series of various peptides synthesized in Examples 1 and 2 was added to achieve 0.006-100 nmol/L (myostatin inhibition) and 0.12-2000 nmol/L (GDF-11 inhibition). At this time, blank wells, in which neither myostatin, GDF-11, nor each peptide was added, were also prepared and incubated in a CO2 incubator (37°C, 5% CO2) for 20 to 24 hours.
(§5) The medium containing the cells was removed, and a mixture containing PBS (14190144, Thermo) and a chromogenic substrate One-Glo Luciferase Assay System (E6120, Promega) at a ratio of 1:1 was added to each well at 100 µL/well. This was stirred with a plate shaker for 5 min and transferred to a 384-well plate (3570, Corning) at a volume of 20 µL/well.
(§6) The plate was centrifuged at 1,000 × g for 1 min and the luminescence signal (700 nm luminescence) was measured using a plate reader (Envision 2104, PerkinElmer). Based on the measured values, IC50 values of the peptides were calculated using software (Prism 9, GraphPad). […]
(§7) In this Example, the in vitro myostatin inhibitory effects of the peptides synthesized in Examples 10 and 11 were evaluated according to the Evaluation Procedure (1) in Example 3.

[2] = system: Myostatin; test: Reporter gene assay for myostatin signaling in HepG2 cell line, Evaluation Procedure (1), myostatin inhibition; conditions: GDF-11 IC50 versus Myostatin IC50
Protocol: as §1, §2, §3, §4, §5, §6, §7

[3] = target: T2, Myostatin (Homo sapiens, UniProt O14793); test: as above; conditions: read-out: IC50 (Luciferase) Myostatin HepG2
T2 construct: active myostatin (also called mature myostatin) is a homodimer consisting of two C-terminal growth factor domains; purchased R&D systems 788-G8/CF
T2 sequence (O14793 267-375): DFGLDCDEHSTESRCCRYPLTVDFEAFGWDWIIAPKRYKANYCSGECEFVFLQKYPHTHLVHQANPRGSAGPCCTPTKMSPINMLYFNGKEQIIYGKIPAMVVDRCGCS
Protocol: as §1, §2, §3, §4, §5, §6, §7

| Structure (SMILES) | IC50 ([1]; Method A: GDF-11 10 ng/mL) [nM] | IC50 ([3]; Method A: Myostatin 10 ng/mL) [nM] | Selectivity ([2]; Method A) | also measured |
| --- | --- | --- | --- | --- |
| CCCCCCCCCC[C@@H]1NC(=O)[C@H](Cc2ccccc2)N(C)C(=O)[C@H](CCCNC(=N)N)NC(=O)[C@H](Cc2ccc(C(=O)O)cc2)NC(=O)[C@H](Cc2cccc(OCC(=O)O)c2)NC(=O)[C@H]2CCCN2C(=O)[C@H]([C@@H](C)CC)NC(=O)[C@H](Cc2ccccc2)N(C)C(=O)[C@H](Cc2ccc(O)cc2)NC(=O)[C@H](Cc2c[nH]c3ccccc23)NC(=O)[C@H](C)NC(=O)[C@H](C)NC(=O)CSC[C@H](C(=O)N2CCC(CCC(N)=O)CC2)NC(=O)[C@H](Cc2ccccc2)N(C)C(=O)[C@H](CCC(=O)O)N(C)C1=O [Myostatin_99_v344] ({CH2CO}-AAWY[NMeF]I[dP][Phe(3-OCH2COOH)][Phe(4-COOH)]R[NMeF][Gly(decyl)][NMeE][NMeF][dC]-{Piperidine(4-CH2CH2CONH2)}; thioether N-15) | – | – | – | IC50 ([1]; Method C: GDF-11 1 ng/mL): 62.3 nM; Selectivity ([2]; Method C): 812.6; IC50 ([3]; Method C: Myostatin 1.5 ng/mL): 0.08 nM |
| CCCCCC[C@@H]1NC(=O)[C@H](Cc2ccccc2)N(C)C(=O)[C@H](CCCNC(=N)N)NC(=O)[C@H](Cc2ccc(C(=O)O)cc2)NC(=O)[C@H](Cc2cccc(OCC(=O)O)c2)NC(=O)CN(C)C(=O)[C@H]([C@@H](C)CC)NC(=O)[C@H](Cc2ccccc2)N(C)C(=O)[C@H](Cc2ccc(O)cc2)NC(=O)[C@H](Cc2c[nH]c3ccccc23)NC(=O)[C@H](C)NC(=O)[C@H](C)NC(=O)CSC[C@H](C(=O)O)NC(=O)[C@H](Cc2ccccc2)N(C)C(=O)[C@H](C)N(C)C1=O [Myostatin_99_v207] ({CH2CO}-AAWY[NMeF]I[Sar][Phe(3-OCH2COOH)][Phe(4-COOH)]R[NMeF][Aoc(2)][NMeA][NMeF][dC]-OH; thioether N-15) | 270 | 3.5 | 77 | – |
| CC[C@H](C)[C@@H]1NC(=O)[C@H](Cc2ccccc2)N(C)C(=O)[C@H](Cc2ccc(O)cc2)NC(=O)[C@H](Cc2c[nH]c3ncccc23)NC(=O)[C@H](C)NC(=O)CN(CCCC(=O)O)C(=O)CSC[C@H](C(=O)O)NC(=O)[C@H](Cc2ccccc2)N(C)C(=O)[C@H](C)N(C)C(=O)[C@H](CC(C)C)NC(=O)[C@H](Cc2ccccc2)N(C)C(=O)[C@H](CCCNC(=N)N)NC(=O)[C@H](Cc2ccc(C(N)=O)cc2)NC(=O)[C@H](Cc2ccccc2)NC(=O)CN(C)C1=O [Myostatin_99_v44] ({CH2CO}-[Gly(N(CH2)3COOH)]A[Trp(7-aza)]Y[NMeF]I[Sar]F[Phe(4-CONH2)]R[NMeF]L[NMeA][NMeF][dC]-OH; thioether N-15) | 810 | 8.4 | 96 | – |
| CCCCCCCCCC[C@@H]1NC(=O)[C@H](Cc2ccccc2)N(C)C(=O)[C@H](CCCNC(=N)N)NC(=O)[C@H](Cc2ccc(C(=O)O)cc2)NC(=O)[C@H](Cc2cccc(OCC(=O)O)c2)NC(=O)[C@H]2CCCN2C(=O)[C@H]([C@@H](C)CC)NC(=O)[C@H](Cc2ccccc2)N(C)C(=O)[C@H](Cc2ccc(O)cc2)NC(=O)[C@H](Cc2c[nH]c3ccccc23)NC(=O)[C@H](C)NC(=O)[C@H](C)NC(=O)CSC[C@H](C(=O)N2CCN(CC(=O)O)CC2)NC(=O)[C@H](Cc2ccccc2)N(C)C(=O)[C@H](CCC(=O)O)N(C)C1=O [Myostatin_99_v309] ({CH2CO}-AAWY[NMeF]I[dP][Phe(3-OCH2COOH)][Phe(4-COOH)]R[NMeF][Gly(decyl)][NMeE][NMeF][dC]-{Piperazinyl(4-CH2COOH)}; thioether N-15) | – | – | – | IC50 ([1]; Method B: GDF-11 1 ng/mL): 25 nM; Selectivity ([2]; Method B): 287; IC50 ([3]; Method B: Myostatin 1 ng/mL): 0.09 nM |
| CCCCC[C@@H]1NC(=O)[C@H](Cc2ccccc2)N(C)C(=O)[C@H](CCCNC(=N)N)NC(=O)[C@H](Cc2ccc(C(=O)O)cc2)NC(=O)[C@H](Cc2cccc(OCC(=O)O)c2)NC(=O)CN(C)C(=O)[C@H]([C@@H](C)CC)NC(=O)[C@H](Cc2ccc(O)cc2)N(C)C(=O)[C@H](Cc2ccc(O)cc2)NC(=O)[C@H](Cc2ccc(-c3ccccc3)cc2)NC(=O)[C@H](C)NC(=O)CN(CCCC(=O)O)C(=O)CSC[C@H](C(=O)O)NC(=O)[C@H](Cc2ccccc2)N(C)C(=O)[C@H](C)N(C)C1=O [Myostatin_99_v116] ({CH2CO}-[Gly(N(CH2)3COOH)]A[Bip]Y[NMeY]I[Sar][Phe(3-OCH2COOH)][Phe(4-COOH)]R[NMeF][Ahp(2)][NMeA][NMeF][dC]-OH; thioether N-15) | 1960 | 5.4 | 364 | – |
